From patent US20120108667A1, “HYDROXY CERAMIDES AND ANALOGS THEREOF AND THEIR USE FOR PREVENTING OR TREATING CANCER” (priority 2010, published 2012)
Values joined by “and” are separate entries in the source; they are usually repeats but may differ in a detail not shown here. Equal values may be shown once. Read-outs that look alike come from different tables or passages of the source. One block for each compound: values may come before it.

Legend:
[1] = tested on: HL60 leukemia cells; conditions: previously reported; cited from earlier work
[2] = tested on: MCF7 cells; experiment: Cell proliferation of MCF7 cells (cell counts, Trypan blue, 24 h); assay type: cell-based, human; conditions: for IC50: read-out: IC50, MCF7 cell growth inhibition
Procedure: (§1) MCF7 cells (breast adenocarcinoma, pleural effusion) were purchased from American type Culture Collection (ATCC, Rockville, Md., USA) and grown in RPMI 1640 media (Life Technologies, Inc) supplemented with 10% fetal calf serum (FCS, Summit Biotechnology, CO, USA) and maintained under standard incubator conditions (humidified atmosphere 95% air, 5% CO2, 37° C.). A parallel set of cells was used to determine cell proliferation and to prepare lipid extracts for MS analysis.
MCF7 cells were seeded at a density of ˜50% (corresponding to 1×10^6 cells) in 10 ml of 10% FCS and, after an overnight incubation, were treated with the compounds at (0-50 μM) in ethanol (<0.1%) and the changes in cell numbers after 24 h were determined and expressed as a percentage of the untreated controls. Briefly, media were removed, cells were washed twice with PBS, detached using 1% Trypsin and centrifuged at 800 rpm. Cell pellets were resuspended in PBS and Trypan blue (Sigma Chemicals, St. Louis, Mo., USA) was added (1:1 dilution). Under a light microscope, the percentage of unstained and stained cells was assessed.

[3] = tested on: MCF7 cells; experiment: LC-MS/MS cellular levels of exogenously added compounds in MCF7 cells; assay type: cell-based, human; conditions: for cellular level of the analog, time course / cellular uptake, early level / cellular level of the analog, concentration dependent: MCF7 cells; for cellular level of the analog, time course / cellular uptake, early level: 10 μM; for cellular level of the analog, time course: up to 24 h; for cellular uptake, early level: up to ~1 h; for cellular accumulation: MCF7 cells (Example 6); for cellular level of the analog, concentration dependent: 24 h
Procedure: as §1
(§2) Advanced analyses were performed on a Thermo Finnigan TSQ 7000, triple-stage quadrupole mass spectrometer operating in a Multiple Reaction Monitoring (MRM) positive ionization mode as described (J. Bielawski, et al., Methods 39 (2006), p. 82; J. Bielawski, et al., Methods Mol. Biol. 579 (2009), p. 443). Quantitative analysis of the cellular level of 2′-OH—C6-Cers/dhCers and C6-Cer/dhCer was based on the calibration curves generated by spiking an artificial matrix with known amounts of target standards and an equal amount of the internal standard (IS). The target analyte to IS peak area ratios from the samples were similarly normalized to their respective IS and compared to the calibration curves using a linear regression model. Final results were expressed as the level of the particular SPLs/phospholipids (Pi) determined from the Bligh & Dyer lipid extract and expressed as SPLs/Pi (pmol/nmol).

[4] = tested on: endogenous SPLs in MCF7 cells; experiment: LC-MS/MS analysis of endogenous SPLs in treated MCF7 cells; assay type: cell-based, human; conditions: for elevation of cellular dhCer: 40 μM treatment
Procedure: as §1, §2

[5] = molecular target: T1, dhCer desaturase (Homo sapiens, UniProt O15121); experiment: Conversion of C6-dhCer analogs to their unsaturated analogs in MCF7 cells; assay type: cell-based; conditions: 24 h treatment
T1 construct: endogenous in cells; host or cells: MCF7
T1 sequence (O15121 1-323): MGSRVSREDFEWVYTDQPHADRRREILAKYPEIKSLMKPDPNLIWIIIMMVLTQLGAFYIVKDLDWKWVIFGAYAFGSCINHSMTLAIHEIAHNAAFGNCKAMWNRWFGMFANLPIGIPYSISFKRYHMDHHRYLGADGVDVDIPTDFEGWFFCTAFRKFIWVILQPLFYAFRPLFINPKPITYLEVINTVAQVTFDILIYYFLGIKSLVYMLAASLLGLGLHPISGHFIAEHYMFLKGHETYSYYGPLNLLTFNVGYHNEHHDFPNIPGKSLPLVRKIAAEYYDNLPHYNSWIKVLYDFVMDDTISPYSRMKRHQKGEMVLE
Procedure: as §2

[6] = 10 μM, time-dependent experiment, data not shown

Compound: CCCCCCCCCCCCC/C=C/[C@@H](O)[C@H](CO)NC(=O)[C@H](C)O [(2′S)-2′-OH—C3-Cer]
potency relative to the other isomer [1]: much more potent then its (2′R)-isomer

Compound: CCCCCCCCCCCCC/C=C/[C@@H](O)[C@H](CO)NC(=O)CCCCC [C6-Cer]
IC50 ([2]; listed as C6-ceramide): 12 µM
IC50 [2]: ~12 µM
cellular level of the analog, time course [3]: progressively increased up to 5 h followed by decrease at 24 h
cellular uptake, early level [3]: highest levels
cellular Cers level, time dependent ([4]; 10 μM, at 24 h): 350%
cellular Cers level, time dependent ([4]; 10 μM, up to 5 h): 500%
increase of C14-Cer ([4]; 20 μM treatment, 24 h): ~40 fold
increase of C16-Cer ([4]; 20 μM treatment, 24 h): ~20 fold
increase of C18-Cer ([4]; 20 μM treatment, 24 h): ~80 fold
increase of C24-Cer ([4]; 20 μM treatment, 24 h): ~0.2 fold
increase of C24:1-Cer ([4]; 20 μM treatment, 24 h): fivefold
cellular S1P level ([4]; 20 μM, 24 h): 800%
endogenous Cer (total) level ([4]; 20 μM, 24 h): up to 900%
endogenous Sph level ([4]; 20 μM, 24 h): ≤ 600%
concentration from which all Cer species are elevated ([4]; 24 h): ≥ 5 µM
influence on levels of cellular Cers/dhCers ([4]; MCF7 cells): significantly increased the levels of their cellular long chain homologs
metabolism/conversion to cellular long chain 2′-OH homologs (2′-OHCer analogs) ([4]; MCF7 cells): not converted to the cellular 2′-OHCer analogs

Compound: CCCCCCCCCCCCCCC[C@@H](O)[C@H](CO)NC(=O)CCCCC [C6-dhCer]
conversion to the corresponding unsaturated analog [5]: 42%
concentration at which an inhibitory effect on cell growth is caused [2]: higher than 10 μM
IC50 [2]: ~38 µM and 38 µM
cellular level of the analog, time course [3]: followed the curve of C6-Cer, however at a lower rate
effect on Cer species, time dependent ([4]; 10 μM): elevated all Cer species
effect on cellular Sph, time dependent ([4]; 10 μM): slightly increased
cellular Cers level, time dependent ([4]; 10 μM, at 24 h): 280%
cellular dhCers level, time dependent ([4]; 10 μM, at 24 h): decreased to almost control level
effect on dhCer species, time dependent ([4]; 10 μM, data not shown): elevated all dhCer species
cellular Cers level, time dependent ([4]; 10 μM, up to 5 h): 310%
cellular dhCers level, time dependent ([4]; 10 μM, up to 5 h): 750%
elevation of cellular dhCer ([4]; 24 h): ~7 fold
endogenous Cer level ([4]; 40 μM, 24 h): 550%
increase of cellular dhSph ([4]; 40 μM, 24 h): ~5 fold
elevation of dhC16-Cer (C16-dhCer) ([4]; 24 h, results not shown): ≤ 13 fold
C16-Cer/C16-dhCer fold ratio ([4]; MCF7 cells): 50/13
influence on levels of cellular Cers/dhCers ([4]; MCF7 cells): significantly increased the levels of their cellular long chain homologs
cellular Sph level (decrease to) ([4]; at a low concentration, 24 h): ~70%
effect on cellular dhCers ([4]; up to 10 μM, 24 h): did not induce elevation of cellular dhCers

Now from value to compound, other results behind:

cellular accumulation [3]: low cellular accumulation
cellular uptake, early level [3]: highest levels
cellular level of the analog, concentration dependent [3]: lowest level
Compound: CCCCCCCCCCCCC/C=C/[C@@H](O)[C@H](CO)NC(=O)[C@H](O)CCCC [LCL366, (2S,3R,2′R,4E)-2′-Hydroxy-C6-ceramide]
cellular level of the analog, time course [3]: progressively decreased to the lowest level among all tested analogs at 24 h

cellular accumulation [3]: higher cellular accumulation
cellular level of the analog, concentration dependent [3]: highest level
Compound: CCCCCCCCCCCCC/C=C/[C@@H](O)[C@H](CO)NC(=O)[C@@H](O)CCCC [LCL367, (2S,3R,2′S,4E)-2′-Hydroxy-C6-ceramide]
cellular level of the analog, time course [3]: elevated up to 2.5 h followed by a small decrease at 5 h and plateau to 24 h

conversion to the corresponding unsaturated analog [5]: up to 12%
IC50 ([2]; listed as (2′S)-2′-OH—C6-dhCer): ~12 µM and 12 µM
Compound: CCCCCCCCCCCCCCC[C@@H](O)[C@H](CO)NC(=O)[C@@H](O)CCCC [LCL466, (2S,3R,2′S)-2′-Hydroxy-C6-dihydroceramide]
cellular level of the analog, time course [3]: elevated up to 5 h reaching the level of C6-dhCer and remaining constant up to 24 h
effect on Cer species, time dependent ([4]; 10 μM): elevated all Cer species
cellular Cers level, time dependent ([4]; 10 μM, at 24 h): the same as for 5 h treatment
cellular dhCers level, time dependent ([4]; 10 μM, at 24 h): the same as for 5 h treatment
effect on dhCer species, time dependent ([4]; 10 μM, data not shown): elevated all dhCer species
cellular Cers level, time dependent ([4]; 10 μM, up to 5 h): 200%
cellular dhCers level, time dependent ([4]; 10 μM, up to 5 h): 200%
elevation of cellular dhCer ([4]; 24 h): ~19 fold
increase of cellular dhSph ([4]; 40 μM, 24 h): ~16 fold
cellular Sph level, concentration dependent ([4]; 24 h): elevation of cellular Sph
elevation of dhC16-Cer (C16-dhCer) ([4]; 24 h, results not shown): up to 25 fold
C16-Cer/C16-dhCer fold ratio ([4]; MCF7 cells): 50/25
effectiveness as inducer of cellular dhCers, Cers, dhSph and Sph ([4]; MCF7 cells): three time more effective than C6-dhCer

conversion to the corresponding unsaturated analog [5]: up to 5%
IC50 ([2]; listed as (2′R)-2′-OH—C6-dhCer): ~8 µM and 8 µM
Compound: CCCCCCCCCCCCCCC[C@@H](O)[C@H](CO)NC(=O)[C@H](O)CCCC [LCL467, (2S,3R,2′R)-2′-Hydroxy-C6-dihydroceramide]
effect of 20 μM treatment on cells ([2]; 20 μM): total cell death
cellular level of the analog, time course [3]: showed the lowest level, remaining in a plateau between 2.5-24 h
endogenous Cer (total) level ([4]; 10 μM, 24 h, concentration-dependent experiment): ~150%
cellular Cers level, time dependent ([4]; 10 μM, at 24 h): ~140%
cellular dhCers level, time dependent ([4]; 10 μM, at 24 h): remained unchanged
decrease of long chain dhCers [4, 6]: 10-25%
increase of very long chain dhCers [4, 6]: 20-30%
cellular Cers level, time dependent ([4]; 10 μM, up to 5 h): did not affect
cellular dhCers level, time dependent ([4]; 10 μM, up to 5 h): did not affect
decrease of C16-Cer ([4]; 1-5 μM, 24 h): up to 60%
cellular Sph level, concentration dependent ([4]; 24 h): ~80%
effect on cellular dhSph ([4]; 24 h): did not affect
C14-dhCer level (decrease to) ([4]; 24 h, results not shown): 25 % control
elevation of dhC16-Cer (C16-dhCer) ([4]; 24 h, results not shown): did not elevate
effectiveness as inducer of cellular dhCers, Cers, dhSph and Sph ([4]; MCF7 cells): not effective
effect on cellular Cer ([4]; up to 5 μM, 24 h): did not affect
